From patent US10428080B2, “TBK/IKK inhibitor compounds and uses thereof” (Merck Patent GmbH, priority 2015, dated 2019) come the findings set out here.

Where a name gives a salt, the structure may show the parent alone.

For one test, the target named is T1, IKKε (Homo sapiens, UniProt Q14164).
T1 sequence (Q14164 1-716): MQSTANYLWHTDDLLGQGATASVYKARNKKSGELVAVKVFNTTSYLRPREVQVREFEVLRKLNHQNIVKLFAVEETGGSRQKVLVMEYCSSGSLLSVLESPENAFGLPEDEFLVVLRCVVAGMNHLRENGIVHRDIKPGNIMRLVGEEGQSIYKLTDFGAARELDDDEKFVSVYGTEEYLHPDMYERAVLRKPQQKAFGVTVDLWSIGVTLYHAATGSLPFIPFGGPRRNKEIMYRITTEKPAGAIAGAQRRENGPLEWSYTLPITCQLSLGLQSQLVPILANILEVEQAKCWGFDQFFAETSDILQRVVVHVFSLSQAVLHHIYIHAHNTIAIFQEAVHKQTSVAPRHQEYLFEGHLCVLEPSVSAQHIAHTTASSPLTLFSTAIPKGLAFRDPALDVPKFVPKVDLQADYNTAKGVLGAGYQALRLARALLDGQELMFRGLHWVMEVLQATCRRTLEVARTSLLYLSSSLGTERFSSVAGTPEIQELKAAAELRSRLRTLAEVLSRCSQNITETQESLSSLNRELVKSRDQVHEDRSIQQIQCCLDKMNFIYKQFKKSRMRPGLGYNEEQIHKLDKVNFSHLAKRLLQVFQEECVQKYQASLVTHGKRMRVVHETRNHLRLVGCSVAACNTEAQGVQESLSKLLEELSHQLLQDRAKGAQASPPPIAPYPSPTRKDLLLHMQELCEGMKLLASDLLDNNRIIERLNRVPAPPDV
In words: IKKe Biochemical Assay. Conditions: read-out: IKKε IC50. A digest of the protocol: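 Recombinant IKKε and substrate were incubated with compound (10-point 1:4 series, top 30 uM final, 1% DMSO) for 90 min at 25° C, then stopped. Substrate-to-product conversion was read by LabChip microfluidic mobility shift; 10 uM staurosporine served as full-inhibition wells.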

A further test deals with T2, TBK1 (Homo sapiens, UniProt Q9UHD2).
T2 sequence (Q9UHD2 1-729): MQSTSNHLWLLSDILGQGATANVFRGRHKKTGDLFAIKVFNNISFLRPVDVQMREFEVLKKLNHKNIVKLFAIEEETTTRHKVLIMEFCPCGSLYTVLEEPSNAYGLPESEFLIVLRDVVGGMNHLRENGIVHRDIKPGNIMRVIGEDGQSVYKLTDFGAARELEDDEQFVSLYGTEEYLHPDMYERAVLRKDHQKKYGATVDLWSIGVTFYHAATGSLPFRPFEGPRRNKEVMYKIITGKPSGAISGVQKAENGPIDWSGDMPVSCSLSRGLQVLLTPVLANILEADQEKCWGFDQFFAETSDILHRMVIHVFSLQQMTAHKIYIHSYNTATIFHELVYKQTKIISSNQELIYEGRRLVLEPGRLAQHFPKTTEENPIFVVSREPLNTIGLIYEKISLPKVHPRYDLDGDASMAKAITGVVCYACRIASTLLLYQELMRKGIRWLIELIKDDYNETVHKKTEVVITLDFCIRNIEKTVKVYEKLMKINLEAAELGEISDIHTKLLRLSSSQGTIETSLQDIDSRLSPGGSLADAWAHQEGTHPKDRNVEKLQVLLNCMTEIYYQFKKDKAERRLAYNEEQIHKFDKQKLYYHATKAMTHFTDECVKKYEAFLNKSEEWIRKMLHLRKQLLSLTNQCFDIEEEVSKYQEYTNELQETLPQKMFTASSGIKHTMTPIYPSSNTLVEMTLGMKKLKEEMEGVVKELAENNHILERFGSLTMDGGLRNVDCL
In words: TBK Biochemical Assay. To be noted: read-out: TBK1 IC50. The gist of the method:
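TBK1 enzyme and substrate incubated with compounds (10-point 1:4 dilution, top 30 uM final, 1% DMSO) for 90 min at 25° C, then stopped. Substrate/product peaks read by microfluidic mobility-shift (Caliper LabChip); 10 uM staurosporine as full-inhibition control.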

`CN(C)C(=O)c1ccc(-c2cc3nccc(-c4ccc(Oc5ccccc5F)c(C#N)c4)c3o2)cc1` [Compound 178, 4-{7-[3-Cyano-4-(2-fluoro-phenoxy)-phenyl]-furo[3,2-b]pyridin-2-yl}-N,N-dimethyl-benzamide]: the IC50 at IKKε and on TBK1 was 100 to 1000 nM throughout.
Regarding `COc1cc(C(=O)NCC2CCCCC2(F)F)ccc1-c1cc2nccc(-c3ccc(NC4CCOCC4)c(C#N)c3)c2o1` (stereo not shown) [Compound 180, 4-{7-[3-Cyano-4-(tetrahydro-pyran-4-ylamino)-phenyl]-furo[3,2-b]pyridin-2-yl}-N-(2,2-difluoro-cyclohexylmethyl)-3-methoxy-benzamide], the IC50 at IKKε and on TBK1 was 100 to 1000 nM in each case.
As for `CN(C)C(=O)c1ccc(-c2cc3nccc(-c4ccc(Oc5cccnc5)c(C#N)c4)c3o2)cc1` [Compound 181, 4-{7-[3-Cyano-4-(pyridin-3-yloxy)-phenyl]-furo[3,2-b]pyridin-2-yl}-N,N-dimethyl-benzamide], the IC50 on IKKε and on TBK1 was 100 to 1000 nM throughout.
Take `COc1cc(C(=O)N(C)C)ccc1-c1cc2nccc(-c3ccc(OC4CCN(C(=O)OC(C)(C)C)CC4)c(C#N)c3)c2o1` [Compound 182]: the IC50 at IKKε and at TBK1 was greater than 5000 nM throughout.
Turning to `CC(C)(C)OC(=O)Nc1ccc(-c2cc3nccc(-c4ccc(OC5CCOCC5)c(C#N)c4)c3o2)cc1` [Compound 183], the results for the IC50 at IKKε and at TBK1 were 100 to 1000 nM and 1000 to 5000 nM, respectively.
On the same counts, the results for `CC1CC(Oc2ccc(-c3ccnc4cc(-c5ccc(C(=O)N(C)C)cc5)oc34)cc2C#N)CCO1` (stereo not shown) [Compound 184, 4-{7-[3-Cyano-4-(2-methyl-tetrahydro-pyran-4-yloxy)-phenyl]-furo[3,2-b]pyridin-2-yl}-N,N-dimethyl-benzamide] are 100 to 1000 nM and 1000 to 5000 nM.
`CN(C)C(=O)c1ccc(-c2cc3nccc(-c4ccc(OC5CCNCC5)c(C#N)c4)c3o2)cc1` [Compound 185, 4-{7-[3-Cyano-4-(piperidin-4-yloxy)-phenyl]-furo[3,2-b]pyridin-2-yl}-N,N-dimethyl-benzamide hydrochloride]: the IC50 (as a rule, the midpoint of a concentration-inhibition curve) on IKKε lay in the range of 100 to 1000 nM; on TBK1, 1000 to 5000 nM.
On the same counts, the results for `N#Cc1cc(-c2ccnc3cc(-c4ccc(C(=O)O)cc4)oc23)ccc1Oc1cccnc1` [Compound 186, 4-{7-[3-Cyano-4-(pyridin-3-yloxy)-phenyl]-furo[3,2-b]pyridin-2-yl}-benzoic acid] are 100 to 1000 nM and 1000 to 5000 nM.
On the same counts, the results for `CCOC(=O)c1ccc(-c2cc3nccc(-c4ccc(N5CC[C@H](F)C5)c(C#N)c4)c3o2)cc1` [Compound 187, 4-{7-[3-Cyano-4-((S)-3-fluoro-pyrrolidin-1-yl)-phenyl]-furo[3,2-b]pyridin-2-yl}-benzoic acid ethyl ester] are 100 to 1000 nM and 1000 to 5000 nM.
Taken in the same sequence, the figures for `N#Cc1cc(-c2ccnc3cc(-c4ccc(C(=O)O)cc4)oc23)ccc1Oc1cccc(F)c1` [Compound 188, 4-{7-[3-Cyano-4-(3-fluoro-phenoxy)-phenyl]-furo[3,2-b]pyridin-2-yl}-benzoic acid] were 1000 to 5000 nM and 1000 to 5000 nM.
In the case of `CC1CC(Oc2ccc(-c3ccnc4cc(-c5ccc(C(=O)O)cc5)oc34)cc2C#N)CC(C)O1` (stereo not shown) [Compound 189], the concentration for half-maximal inhibition (IC50) is 1000 to 5000 nM at IKKε and greater than 5000 nM at TBK1.
On the same counts, the results for `CN(C)C(=O)c1ccc(-c2cc3nccc(-c4ccc(OC5CCNCC5)c(C#N)c4)c3o2)nc1` [Compound 190] are 100 to 1000 nM and greater than 5000 nM.
Taken in the same sequence, the figures for `CCOC(=O)c1ccc(-c2cc3nccc(-c4ccc(N5CC[C@@H](F)C5)c(C#N)c4)c3o2)cc1` [Compound 191, 4-{7-[3-Cyano-4-((R)-3-fluoro-pyrrolidin-1-yl)-phenyl]-furo[3,2-b]pyridin-2-yl}-benzoic acid ethyl ester] were 100 to 1000 nM and greater than 5000 nM.
Consider `N#Cc1cc(-c2ccnc3cc(-c4ccc(C(=O)O)cc4)oc23)ccc1Oc1ccncc1` [Compound 192, 4-{7-[3-Cyano-4-(pyridin-4-yloxy)-phenyl]-furo[3,2-b]pyridin-2-yl}-benzoic acid], for which the IC50 at IKKε and on TBK1 was greater than 5000 nM in each case.
On to `CN(C)C(=O)c1ccc(-c2cc3nccc(-c4ccc(NC5CCOCC5)c(C#N)c4)c3o2)cc1` [Compound 194, 4-(7-(3-cyano-4-(tetrahydro-2H-pyran-4-ylamino)phenyl)furo[3,2-b]pyridin-2-yl)-N,N-dimethylbenzamide hydrochloride], for which the IC50 on IKKε and on TBK1 was 100 to 1000 nM throughout.
As for `CC1CC(Nc2ccc(-c3ccnc4cc(-c5ccc(C(=O)N(C)C)cc5)oc34)cc2C#N)CC(C)O1` (stereo not shown) [Compound 215, 4-(7-(3-cyano-4-(2,6-dimethyl-tetrahydro-2H-pyran-4-ylamino)phenyl)furo[3,2-b]pyridin-2-yl)-N,N-dimethylbenzamide hydrochloride], the results for the IC50 at IKKε and on TBK1 were 100 to 1000 nM and 1000 to 5000 nM, respectively.
Taken in the same sequence, the figures for `CN(C)C(=O)c1ccc(-c2cc3nccc(-c4ccc(OC5CC(C)(C)NC(C)(C)C5)c(C#N)c4)c3o2)cc1` [Compound 216, 4-(7-(3-cyano-4-(2,2,6,6-tetramethylpiperidin-4-yloxy)phenyl)furo[3,2-b]pyridin-2-yl)-N,N-dimethylbenzamide] were greater than 5000 nM and greater than 5000 nM.
In the case of `CN(C)C(=O)c1ccc(-c2cc3nccc(-c4ccc(NC5C6COCC65)c(C#N)c4)c3o2)cc1` (stereo not shown) [Compound 217, 4-(7-(4-(3-oxa-bicyclo[3.1.0]hexan-6-ylamino)-3-cyanophenyl)furo[3,2-b]pyridin-2-yl)-N,N-dimethylbenzamide hydrochloride], the IC50 at IKKε and at TBK1 was 100 to 1000 nM each time.
Take `CN(C)C(=O)c1ccc(-c2cc3nccc(-c4ccc(NC5CC(C)(C)OC(C)(C)C5)c(C#N)c4)c3o2)cc1` [Compound 218, 4-(7-(3-cyano-4-(2,2,6,6-tetramethyl-tetrahydro-2H-pyran-4-ylamino)phenyl)furo[3,2-b]pyridin-2-yl)-N,N-dimethylbenzamide]: the IC50 on IKKε and on TBK1 was 1000 to 5000 nM throughout.
Regarding `CN(C)C(=O)c1ccc(-c2cc3nccc(-c4ccc(CN5CCOCC5)c(C#N)c4)c3o2)cc1` [Compound 222, 4-(7-(3-cyano-4-(morpholinomethyl)phenyl)furo[3,2-b]pyridin-2-yl)-N,N-dimethylbenzamide], the IC50 at IKKε and at TBK1 was 100 to 1000 nM each time.
For `CN(C)C(=O)c1ccc(-c2cc3nccc(-c4ccc(C(C)(C)N5CCOCC5)c(C#N)c4)c3o2)cc1` [Compound 223, 4-(7-(3-cyano-4-(2-morpholinopropan-2-yl)phenyl)furo[3,2-b]pyridin-2-yl)-N,N-dimethylbenzamide hydrochloride], the IC50 on IKKε and at TBK1 was less than 100 nM in each case.
For `CN(C)C(=O)c1ccc(-c2cc3nccc(-c4cc(F)c(NC5CCOCC5)c(C#N)c4)c3o2)cc1` [Compound 224, 4-(7-(3-cyano-5-fluoro-4-(tetrahydro-2H-pyran-4-ylamino)phenyl)furo[3,2-b]pyridin-2-yl)-N,N-dimethylbenzamide hydrochloride], the half-maximal inhibitory concentration (IC50) at IKKε was less than 100 nM; at TBK1 it was 100 to 1000 nM.
Taken in the same sequence, the figures for `CN(C)C(=O)c1ccc(-c2cc3nccc(-c4cc(F)c(N(C)C5CCOCC5)c(C#N)c4)c3o2)cc1` [Compound 225, 4-(7-(3-cyano-5-fluoro-4-(methyl(tetrahydro-2H-pyran-4-yl)amino)phenyl)furo[3,2-b]pyridin-2-yl)-N,N-dimethylbenzamide hydrochloride] were 100 to 1000 nM and 100 to 1000 nM.
